Measurements published in patent US20070172439A1, “Method of chemiluminescence-utilizing makeup and beautification, luminant for skin irradiation beautification and makeup/beautification equipment” (priority 2004, published 2007).

What was measured:
[1] = system: mouse melanoma(B16 cell); assay: Melanin synthesis rate per unit cell (Abs 475/260 nm); format: cell-based; settings: VC 1 mM addition (positive control), control = 100
Text: (§1) • Cell: mouse melanoma(B16 cell) • Chemical luminescentbody: Normal type • Blue fluorescent light, orange fluorescent light, red fluorescent light, green fluorescent light, and yellow fluorescent light • High intensity type • Orange fluorescent light, red fluorescent light, and green fluorescent light (Produced by OmniGlow Japan Co., Ltd.) Assay: • 1. Seeded B16 cell to 24 well plate with […], MEM·10% S(+)·glucosamine culture medium. n=8 • 2. After culturing 5 days, it was transferred to MEM·10% S(+)·theophyline culture medium. • 3. Exposed to fluorescent light by placing the chemical luminescent body in contact with the plate for 4 hr. in the case of normal type and for 30 min. in the case of high intensity type. The control was under no exposure to fluorescent light and the positive control was in the 1 mMVC (Ascorbic acid) addition system. • 4. The cell was recovered three days after the start of exposure, dissolved into 0.1% DS normal saline solution, and then the optical density was measured at 260 nm (index of the amount of cell) and at 475 nm (index of the amount of melanin), and then the cell proliferation rate and the melanin synthesis rate per unit cell was calculated. • The B16 cell proliferation rate is shown in Table 4 and FIG. 7, and the melanin synthesis rate per unit cell is shown in Table 5 and FIG. 8. […]

[2] = system: mouse melanoma(B16 cell); assay: B16 cell proliferation rate (Abs 260 nm); format: cell-based; settings: VC 1 mM addition (positive control); control = 100
Text: as §1

[3] = system: Normal human skin fibroblast (NHF); assay: Cell proliferation, MTT assay (Example 1); format: cell-based; settings: fluorescence 4 hrs, 100 mM PMG as positive control, vs untreated control
Procedure: The test was performed in the procedure described below: • 1. Cell: Normal human skin fibroblast (NHF) • 2. Chemical fluorescent body: CYALUME Light shape blue, orange and red Seller: OmniGlow Japan Co., Ltd. • 3. Assay: • (1) Seeded NHF to 24 well plate with 2.0×10^4 cells/well, DMEM·10% S(+) • (2) After confluent state is observed by culturing 5 days, it was transferred to non-color and non-blood-serum DMEM. • (3) Exposed to fluorescence (4 hrs.). 100 mM PMG additive system was used as the positive control. • (4) Observed the appearance of the cell (×40) • (5) The quantitative measurement of cell proliferation was made by using MTT assay and by means of colorimetric test with wavelengths of 540 nm for measurement and 655 nm for control. The cell proliferation rate was calculated by using the formula described below, setting the untreated control as 100%. • 4. Calculation formula Cell proliferation rate=([Sample addition OD(540 nm)]−[Sample addition OD(655 nm)])/([Control OD(540 nm)]−[Control OD(655 nm)])×100

[4] = system: Fibroblast(NHF); assay: Fibroblast proliferation, MTT assay (Example 5); format: cell-based, human; settings: PMG 100 mM (positive control); 24 hours
Procedure: (§2) • Cell:Fibroblast(NHF) • Chemical luminescence body (produced by OmniGlow Japan Co., Ltd.) • Normal type red (red fluorescent light) • High intensity orange (orange fluorescent light) • Collagen measurement kit: The amount of propeptide at the end of I type collagen C (PIP) is measured by Takara PIP kit. Assay: • (1)NHF is seeded at 2.0×10^4 to 24 well plate with DMEM·10% S(+). • (2) After confluent state is observed by culturing 5 days, it was transferred to non-color and non-blood-serum DMEM. • (3) Fluorescent light is allowed to irradiate (30 min.) by placing the chemical luminescent body in direct contact with 24 well plate. 100 mM PMG(phosphoric acid-L-magnesium ascorbate) addition system was prepared as the positive control. • (4) After 24 hours from the start of irradiation, the upper layer of the medium is recovered. • The amount of propeptide at the end of I type collagen C (PIP) is measured by Tatara PIP kit and then the calorimetric determination of cell proliferation is made by using MTT assay at observation wavelength of 540 nm and at reference wavelength of 655 nm. The cell proliferation rate is calculated by the formula below by setting the control of non-treated group as 100%. […]

[5] = system: Fibroblast(NHF); assay: Collagen synthesis rate, PIP kit per MTT (Example 5); format: cell-based, human; settings: PMG 100 mM (positive control); per unit cell; control = 100
Procedure: as §2

O=C1O[C@H]([C@@H](O)CO)C(O)=C1O [VC, Ascorbic acid]
Melanin synthesis rate (%) [1]: 65.28%
B16 cell proliferation rate (%) [2]: 21.42%

phosphoric acid-L-magnesium ascorbate [PMG]
cell proliferation [3]: significantly promoted
Fibroblast proliferation rate (%) [4]: 138.2%
Collagen synthesis rate (%) [5]: 127.6%
